Positions count from the first letter of the chain named. Structures can show the parent of a compound that is named as a salt.

Broadly, the Kd is the constant that tells how readily two partners part at equilibrium.

Data set [1] addresses T1, Albumin (Homo sapiens, UniProt P02768). Nature of the data set: Drug displacement of bilirubin from albumin / interference, Bf measured with one-step cartridges. The class given is in vitro ADME. As to conditions: percent increase of Bf for the 3x drug concentration relative to no drug; negative value = interference with the Bf sensor. An excerpt:
Premature infants who are at high risk for bilirubin neurotoxicity are of particular concern because NICU infants frequently receive medications. [Hsieh et al. Medication use in the neonatal intensive care unit. Am J Perinatol.

The target of data set [2] is T1, Albumin. The note with it: cefazolin 3.76 mM.
The target of another data set is adult human albumin (Homo sapiens, UniProt P02768). As to conditions: high affinity site; read-out: equilibrium dissociation constant (Kd) of bilirubin for adult human albumin; cited from earlier work.
The nature of data set [3]: Interference of conjugated bilirubin (ditaurobilirubin) with Bf measurement, UBCheck vs Arrows UA-2. On the set-up: species or system human. As to the method: The potential interference of conjugated bilirubin with the bilirubin probes is determined by measuring the effect of ditaurobilirubin on the ability of the UBCheck to measure Bf accurately. We also compared the UBCheck results with measurements using the Arrows UB analyzer UA-2 method. The measurements are performed by spiking neonatal serum with unconjugated bilirubin to yield a Bf of approximately 10 nM and then titrating the spiked sample with ditaurobilirubin up to 20 mg/dl (FIG. 7). At each step Bf is measured by UBCheck and Arrows and the direct (conjugated) bilirubin concentration is determined using a Sigma direct bilirubin kit. At zero ditaurobilirubin both UBCheck and Arrows yield Bf of 10 nM but the direct bilirubin measurement yields a non-zero value of about 0.5 mg/dl (FIG. 7). With increasing concentrations of ditaurobilirubin UBCheck is unchanged but Arrows increases starting at about 0.5 mg/dl of ditaurobilirubin and then increases rapidly until 4 mg/dl ditaurobilirubin where the Arrow's assay saturates at Bf ≥50 nM. In contrast, the UBCheck only begins to increase at 4 mg/dl ditaurobilirubin where its Bf increase to about 12 nM, a 20% increase from the initial 10 nM level, and only at 20 mg/dl ditaurobilirubin does Bf increase to 33 nM.

Data set [4] can be described thus: Effect of hemoglobin/hemolysate on UBCheck Bf measurement. On the set-up: species or system human. The note with it: bilirubin spiked neonatal serum; hemoglobin concentrations at least as high as 4 g/l; cartridges with Hb blocking peptide. As to the method: After the Bf responder and non-responder probes are applied to the Ni-polystyrene beads, the peptide of Table 4 is added to the beads and is attached through double HIS tags to the bead's Ni-NTAs. The combined probes plus peptide beads are then spotted onto cartridges. The effect of whole blood hemolysate was tested by titrating bilirubin spiked neonatal serum with increasing hemoglobin concentrations.

Data set [5] is described as follows: Stability of non-responder probe 700/819 nm emission ratio in storage. The format is physicochemical. As to conditions: at 1 and 6 days; absence of 700DX-maleimide. From the text: All responder probes labeled with LICOR 700DX-maleimide and non-responder probes labeled with LICOR 800CW-maleimide probes in Tables 1 and 2, respectively have qualitatively similar dependencies on Bf. The probes differ mostly in protein expression, binding parameters (Kd, Ro and Rm) and stability. […] Although the non-responders are not characterized by bilirubin binding parameters, the emission spectrum of the 800CW-maleimide is sensitive to specific substitutions that can alter the LICOR 700DX-maleimide intensities. […] In some of these mutants the ratio of 700 to 819 nm increased from about 1% to 20% while in storage at 4° C. With suitable mutations this instability was eliminated.

Data set [6] is described as follows: Fluorescence intensities of Bf sensor with increasing total bilirubin (FIG. 1). The format is binding. The note with it: increasing BT; 675 nm excitation; probe 10 nM, free in aqueous buffer. How it is done: FIG. 1 depicts the intensities and ratios of intensities for a Bf sensor composed of the bilirubin responsive LICOR 700DX maleimide Mut:SEQ ID NO:2-76C probe (Table 1) and the bilirubin non-responder LICOR 800CW maleimide Mut:SEQ ID NO:1 B-73C probe (Table 2), both free in aqueous buffer, with increasing BT (total bilirubin) which at the concentrations used is primarily unbound bilirubin (Bf). Measurements of the 710 and 805 nm intensities at 675 nm excitation were performed at the probe concentrations of 1.5 nM and 10 nM, respectively in a Horiba Fluorolog 2.

Data set [7] is described as follows: Calibration of free NIR probe/sensor by bilirubin titration (cuvette fluorometry, fit with equation 1). The format is binding. As to conditions: for Qs (Rm/Ro): degree to which the probe is quenched by bilirubin binding, effect of fluorophore position; for Kd: effect of fluorophore (cysteine) position, responder probe labeled with 700DX-maleimide. An excerpt:
Embodiments provided herein are directed to methods of calibrating the bilirubin probes by mixing in an aqueous media the sensor with samples of bilirubin of increasing total bilirubin concentrations (BT), measuring the ratio of fluorescence intensities R of the sensor at each concentration, and determining the calibration parameters (Kd, Rm, and Ro) from the measured fluorescence by fitting with the equation (1), wherein R is the measured fluorescence ratio (Iλ1/Iλ2), where hi is the fluorescence intensity from the first fluorophore at wavelength λ1 and Iλ2 is the fluorescence intensity from the second fluorophore at wavelength λ2, both λ1 and λ2 have background subtracted, and Ro is the ratio in the absence of bilirubin. BT is the total bilirubin concentration and PT is the concentration of the sensor, r is the Iλ2/Iλ1 ratio of the bilirubin sensitive probe's fluorescence in the absence of the second fluorophore, Kd is the equilibrium dissociation constant of the sensor and Rm is the ratio R extrapolated to infinite BT. Equation (1) is used in some embodiments rather than equation (5) of U.S. Pat. No. 9,529,003 when Rm is >0.
Also described are methods for calibrating and using a bilirubin sensor described herein so that Bf concentrations can be determined in approximately 5 μl of undiluted blood samples in a single step. These small volume blood samples are applied to the disposable plastic microfluidic cartridges containing the dried bilirubin ratio sensor. The bilirubin sensor containing cartridges are preferably used for a single measurement and the calibration parameters (Kd, Rm, Ro) must be determined within a “lot” of identically manufactured cartridges. The calibration is performed by titrating a sufficient number of cartridges with aqueous samples of increasing well-defined Bf levels. Because plastics bind unbound bilirubin and because surface to volume ratio in the microfluidics channel is large, the calibration Bf samples must be highly buffered by complexes with albumin. The Bf concentrations of each complex are determined by measuring each by cuvette fluorometry using a calibrated sensor free in aqueous solutions. The free sensor is calibrated by titration with aqueous solutions of bilirubin where the concentrations of these unbound bilirubin solutions are determined by absorbance. The free probe's response (R values versus Bf concentrations) are used to determine the free sensor's calibration (Kd, Rm, Ro) (equation 1). The calibrated free sensor mixed with samples of each of the BR:HSA complexes is used to determine the Bf concentrations of each complexes by cuvette fluorometry using equation 2. These calibrated complexes are used to determine the binding parameters of the disposable cartridges including the equilibrium dissociation constant (Kd), the minimum fluorescence ratio (Rm) and the initial ratio (Ro) under defined conditions, of temperature, pH, and solution composition, suitable for blood samples. Binding isotherms are performed in aqueous buffer by measuring the change in fluorescence of the bilirubin sensor in response to increasing bilirubin concentrations (“titration data”). The set of fluorescence responses at each bilirubin concentration are fitted with an appropriate equation (“calibration equation (3)”) that correctly describes the fluorescence response as a function of the Bf concentration, the, specific spectroscopic characteristics, and the Kd.
All responder probes labeled with LICOR 700DX-maleimide and non-responder probes labeled with LICOR 800CW-maleimide probes in Tables 1 and 2, respectively have qualitatively similar dependencies on Bf. The probes differ mostly in protein expression, binding parameters (Kd, Ro and Rm) and stability. […] Although the non-responders are not characterized by bilirubin binding parameters, the emission spectrum of the 800CW-maleimide is sensitive to specific substitutions that can alter the LICOR 700DX-maleimide intensities. […]

T1 sequence (P02768 25-609): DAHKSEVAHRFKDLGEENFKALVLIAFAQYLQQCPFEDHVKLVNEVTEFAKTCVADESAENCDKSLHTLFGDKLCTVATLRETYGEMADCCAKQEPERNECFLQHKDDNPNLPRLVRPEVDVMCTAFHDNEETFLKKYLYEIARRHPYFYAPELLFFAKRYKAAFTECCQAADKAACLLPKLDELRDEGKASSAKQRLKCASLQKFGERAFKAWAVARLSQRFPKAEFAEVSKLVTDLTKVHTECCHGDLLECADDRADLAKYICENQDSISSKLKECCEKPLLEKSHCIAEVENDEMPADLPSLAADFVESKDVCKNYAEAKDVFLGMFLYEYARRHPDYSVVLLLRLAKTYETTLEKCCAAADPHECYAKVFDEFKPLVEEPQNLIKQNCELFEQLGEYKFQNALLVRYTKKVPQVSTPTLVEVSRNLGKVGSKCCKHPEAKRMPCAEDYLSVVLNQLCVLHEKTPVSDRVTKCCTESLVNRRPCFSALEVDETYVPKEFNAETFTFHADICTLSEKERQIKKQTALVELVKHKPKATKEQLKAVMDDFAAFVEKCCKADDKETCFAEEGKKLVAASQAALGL
Chain of adult human albumin (P02768 25-609): as above

Take `C[C@@H]1[C@H](O)[C@@H](C)/C=C/C=C/C=C/C=C/C=C/C=C/C=C/[C@H](O[C@@H]2O[C@H](C)[C@@H](O)[C@H](N)[C@@H]2O)C[C@@H]2O[C@](O)(C[C@@H](O)C[C@@H](O)[C@H](O)CC[C@@H](O)C[C@@H](O)CC(=O)O[C@H]1C)C[C@H](O)[C@H]2C(=O)O` [Amphotericin B]: the “Displacement or Interference” value at Albumin [1] was 199%.
Still for that read-out and setting: the value for `Cc1nnc(SCC2=C(C(=O)O)N3C(=O)[C@@H](NC(=O)Cn4cnnn4)[C@H]3SC2)s1` [Cefazolin sodium salt] was 524%.
On to `Cc1nnc(SCC2=C(C(=O)O)N3C(=O)[C@@H](NC(=O)Cn4cnnn4)[C@H]3SC2)s1` [Cefazolin], for which the “Bf larger in the UBCheck than Arrows” value on Albumin [2] is reported as approximately 5 fold.
For `CO/N=C(\C(=O)N[C@@H]1C(=O)N2C(C(=O)O)=C(COC(C)=O)CS[C@H]12)c1csc(N)n1` [Cefotaxime], the “Displacement or Interference” value at Albumin [1] turned out to be 157%.
Same read-out and setting: for `CC(C)(O/N=C(\C(=O)N[C@@H]1C(=O)N2C(C(=O)[O-])=C(C[n+]3ccccc3)CS[C@H]12)c1csc(N)n1)C(=O)O` [Ceftazidime sodium salt] the value was 76%; for `NS(=O)(=O)c1cc2c(cc1Cl)N=CNS2(=O)=O` [Chlorothiazide], 1626%.
Same read-out and setting: the value for `NS(=O)(=O)c1cc(C(=O)O)c(NCc2ccco2)cc1Cl` [Furosemide] was 820%.
With `Cc1onc(-c2ccccc2)c1C(=O)N[C@@H]1C(=O)N2[C@@H]1SC(C)(C)[C@@H]2C(=O)O` [Oxacillin], the “Displacement or Interference” value at Albumin [1] is reported as 616%.
For `CC(=O)S[C@@H]1CC2=CC(=O)CC[C@]2(C)[C@H]2CC[C@@]3(C)[C@@H](CC[C@@]34CCC(=O)O4)[C@H]12` [Spironolactone], the “Displacement or Interference” value on Albumin [1] is listed as −98%.
Consider `C=CC1=C(C)/C(=C/c2[nH]c(Cc3[nH]c(/C=C4\NC(=O)C(C)=C4C=C)c(C)c3CCC(=O)O)c(CCC(=O)O)c2C)NC1=O` [bilirubin], for which, at adult human albumin, the Kd was approximately 0.02 µM.
Take ditaurobilirubin: in data set [3] (Arrows UA-2, samples diluted 52-fold, 4 mg/dl ditaurobilirubin), the “Bf (assay saturates)” value is given as not below 50 nM. The “increase of Bf from the initial 10 nM level” value in data set [3] (UBCheck, 4 mg/dl ditaurobilirubin) worked out at 20%. The Bf result in data set [3] (UBCheck, 4 mg/dl ditaurobilirubin, neonatal serum spiked to Bf of approximately 10 nM) was “about 12 nM”; in data set [3] (UBCheck, 20 mg/dl ditaurobilirubin) it was 33 nM.
With hemoglobin, the “Bf concentration relative to zero hemoglobin” value in data set [4] is listed as “unaffected”.

B1: Mut:SEQ ID NO:1 B-73C: non-responder rat FABP mutein 20R 27A 29R 72A 73C 74F 100R 126W 131D-C2XH11 labeled with LICOR 800CW-maleimide (protein)
chain: AFDGTWKVDRNENYEKFMERMGINVVARRLGAHDNLKLTITQEGNKFTVKESSNFRNIDVVFELGVDFAYSACFGTELTGTWTMEGNKLVGKFKRVDNGRELIAVREISGNELIQTYTYEGVEAKWIFKKDRGAASHHHHHHSHRATPNTSPHHHHHHH
modifications: LICOR 800CW-maleimide label; nonresponder mutated probe
notes: non-responder rat FABP mutein 20R 27A 29R 72A 73C 74F 100R 126W 131D-C2XH11 labeled with LICOR 800CW-maleimide
In the case of B1, in data set [5], the 700/819 ratio was found to be 1%. Besides, the “intensity change (cv) of LICOR 800CW maleimide measured at 805 nm” value in data set [6] worked out at 2.5%.

B2: 26C-C2XH11-700DXM: rIFABP mutein MGI-KR14-14R 18L 26C 27A 38V 60R 73F 106L 115R 117D 131D-C2XH11 labeled with LICOR 700DX-maleimide (protein)
chain: MGIAFDGTWRVDRNENRERFLERMGINVCARRLGAHDNLRVTITQEGNRFTVRESSNFRNIDRVFELGVDFAYSLFDGTELTGTWTMEGNRLVGRFRRVDNGRELIAVLEISGNELIRTDTYEGVEARRIFRRDRGAASHHHHHHSHRATPNTSPHHHHHHH
modifications: C2XH11 tag; LICOR 700DX-maleimide label; mutated bf sensitive probe
notes: rIFABP mutein MGI-KR14-14R 18L 26C 27A 38V 60R 73F 106L 115R 117D 131D-C2XH11 labeled with LICOR 700DX-maleimide
On to B2, for which, in data set [7], the “Qs (Rm/Ro)” value was 0.36 and the Kd was 0.021 µM.

B3: 27C-C2XH11-700DXM: rIFABP mutein MGI-KR14-14R 18L 27C 38V 60R 73F 106L 115R 117D 131D-C2XH11 labeled with LICOR 700DX-maleimide (protein)
chain: B2 chain with C29V, A30C
modifications: C2XH11 tag; LICOR 700DX-maleimide label; mutated bf sensitive probe
notes: rIFABP mutein MGI-KR14-14R 18L 27C 38V 60R 73F 106L 115R 117D 131D-C2XH11 labeled with LICOR 700DX-maleimide
For the molecule B3, in data set [7], the “Qs (Rm/Ro)” value is 0.21 and binding was characterised by a dissociation constant (Kd) of 0.03 µM.

These data come from patent publication US20230053493A1, “ONE STEP METHODS, KITS, AND SYSTEMS FOR THE MEASUREMENT OF CONCENTRATIONS OF UNBOUND BILIRUBIN IN BIOLOGICAL FLUIDS” (priority 2019, published 2023).
